In patent US11986482B2, “Method of promoting antitumor or anti-cancer immunity” (City University of Hong Kong, priority 2021, dated 2024):
“Also recorded” adds a separate entry of the source.

Tests used:
PD-L1 [1] = assay: PD-L1 internalization assay (surface anti-PD-L1 antibody labelling, Rab5 colocalization) in HeLa cells; type: cell-based; conditions: HeLa cells pretreated 3 h; Pitstop2 30 uM, Filipin III 5 mg/mL
Method: Without intending to be limited by theory, it is believed that the endosomal trafficking of PD-L1, a type I membrane protein, remains poorly studied thus far. In the fixed HeLa cells stained with anti-PD-L1 antibody, HeLa cells are plated on coverslips in 24-well plates and fixed after 24 h. Cells are then co-stained with antibodies against PD-L1 and Rab5, LAMP1, CD63, Rab27A, Rab11. […] Thus, inventors speculate that PD-L1 at the cell surface may be subjected to an active endosomal trafficking process. To monitor the PD-L1's endosomal trafficking process, inventors label the PD-L1 at the cell surface in the live cells with an anti-PD-L1 antibody on ice for 1 h. They then incubate the cells with the warm medium at 37° C. for the indicated times to initiate the internalization of the PD-L1 antibody complex, followed by the immunostaining of RAB5, EEA1, LAMP1, or RAB11. […] In addition, HeLa cells are pretreated with Fillilin III (5 mg/mL) or Pistop2 (30 uM) for 3 h, then stained with the anti-PD-L1 antibody on ice for 1 h. At the indicated times after being incubated with a warm medium at 37° C., the cells are fixed and stained with an anti-Rab5 antibody. […] Furthermore, Rab5-knockout HeLa cells are transfected with CD63-mcherry and stained with the anti-PD-L1 antibody on ice for 1 h. After being incubated for 1.5 h in a warm medium at 37° C., the cells are fixed and imaged.

PD-L1 [2] = assay: Plasma membrane PD-L1 level in 4T1 cells (flow cytometry); type: cell-based, mouse; conditions: 4T1 cells, GW4869 10 μM with 6J1 1 μM
Method: (§1) The current PD-L1 and PD1 therapies apply PD-L1 or PD1 monoclonal antibodies to block the PD-L1/PD1 signaling, which results in cytotoxic T cells recognizing and killing the tumor cells. […] First, flow cytometry-based quantification of plasma membrane levels of PD-L1 in 4T1 cells treated with or without 6J1 (1 μM) for 24 h. 4T1 cells are treated with or without 6J1 (1 μM) for 24 h. The supernatant is collected, and the concentration of extracellular vesicle is determined using a Nanosight nanoparticle analyzer in FIG. 8b. The exosomes are also collected and subjected to western blot analysis of the EVs marker and PD-L1 in FIG. 8c.
Therefore, it is possible that the increased exosomal PD-L1 secretion induced by 6J1 may still suppress the tumor-infiltrating T cell cytotoxicity in vivo, even though 6J1 reduces the cell surface expression level of PD-L1 on the tumor cells. To evaluate the role of exosomal PD-L1 in the tumor microenvironment and tumor progression in mice, inventors knock out Rab27a in 4T1 cells to inhibit the secretion of exosomes. 4T1-shNC or 4T1-shRab27A cells are treated with or without 6J1 (1 μM). The supernatant is collected, and the concentration of extracellular vesicle is determined using a Nanosight nanoparticle analyzer. […] Inventors analyze the plasma membrane levels of PD-L1 in 4T1-shNC or 4T1-shRab27A cells treated with or without 6J1 (1 μM). […] Next, control or Rab27a-knockout 4T1 cells are orthotopically transplanted into syngeneic fat pads of female Balb/c. The mice are randomly divided (n=5 per group) and treated with either buffer or 6J1 (30 mg/kg, daily) via oral gavage. […] Inventors also perform the immunostaining of CD8 and Granzyme B in the tumor sections. […] Since enhanced antitumor immunity leads to increased apoptosis in tumors, inventors assess the levels of cleaved caspase3 (CCA3), one of the markers of apoptosis, in tumor sections as well.
Finally, inventors assess the combinatory effects of 6J1 with GW4869, an exosome secretion inhibitor, in the aforementioned orthotopic mammary carcinoma mouse models. […]

4T1 cells = assay: Extracellular vesicle concentration, Nanosight nanoparticle analyzer, 4T1 cells; type: cell-based, mouse; conditions: 4T1 cells, GW4869 10 μM with 6J1 1 μM
Method: as §1
To assess whether the in vivo antitumor growth effect of 6J1 is related to its effect on PD-L1 in 4T1 cells, inventors knock out PD-L1 via CRISPR/Cas9 in 4T1 cells (FIG. 10a). 4T1-NC or 4T1-PD-L1 knockout cells are treated with or without 6J1 (1 μM) for 24 h. The supernatant is collected, and the concentration of extracellular vesicle is determined using a Nanosight nanoparticle analyzer. The exosomes are also collected and subjected to western blot analysis of the EVs marker and PD-L1. […] Inventors then transplant control or PD-L1-knockout 4T1 cells into the fat pad of syngeneic female Balb/c mice. The mice are randomly divided (n=5 per group) and treated with either buffer or 6J1 (30 mg/kg, daily) via oral gavage.
Therefore, it is possible that the increased exosomal PD-L1 secretion induced by 6J1 may still suppress the tumor-infiltrating T cell cytotoxicity in vivo, even though 6J1 reduces the cell surface expression level of PD-L1 on the tumor cells. To evaluate the role of exosomal PD-L1 in the tumor microenvironment and tumor progression in mice, inventors knock out Rab27a in 4T1 cells to inhibit the secretion of exosomes. 4T1-shNC or 4T1-shRab27A cells are treated with or without 6J1 (1 μM). The supernatant is collected, and the concentration of extracellular vesicle is determined using a Nanosight nanoparticle analyzer. […] Inventors analyze the plasma membrane levels of PD-L1 in 4T1-shNC or 4T1-shRab27A cells treated with or without 6J1 (1 μM). […]

PD-L1 [3] = assay: Western blot of PD-L1 in total cell lysates and exosomes of HeLa cells; type: cell-based; conditions: HeLa cells, 48 h, Bafilomycin A1 10 nM, Torin 1 100 nM; for exosomal PD-L1 level: ionomycin 1 μM, 6J1 1 μM
Method: PD-L1 has been previously shown to be secreted outside the cell through exosomes. HeLa cells are plated on coverslips in 24-well plates and stained with the anti-PD-L1 antibody on ice for 1 h. At the indicated times after being incubated at a warm medium at 37° C., cells are fixed and stained with antibodies against CD63 or Rab27a. […] Cells are treated with or without ionomycin (1 μM) for 48 h. The supernatant is collected and subjected to western blot analysis. […] Since the amphisome, which is formed by the fusion of the autophagosome with the MVB/late endosome, has been implicated in extracellular vesicles secretion, and PD-L1 is found to be associated with LC3B during PD-L1 trafficking (FIG. 2a), inventors examine whether the autophagosome formation is involved in exosomal PD-L1 secretion. Thus, inventors knock out the expression of Rab27A, LC3B or ATG4B in HeLa cells and collect their supernatant respectively for western blot analysis.
Furthermore, HeLa cells are treated with or without Bafilomycin A1 (10 nM), or Torin 1 (100 nM) for 48 h. The cell lysates and supernatant are collected for western blot analysis. […] In contrast, Torin1, an autophagy activator, has little effect on total and exosomal PD-L1 levels (FIG. 2g). […] On the other hand, blockage on the fusion between lysosomes and late endosomes or autophagosomes may induce PD-L1 secretion via exosomes.
It has previously been shown that interfering with endosomal trafficking promotes exosome secretion. Moreover, PD-L1 has been reported to be enriched in exosomes and secreted outside the cell. Thus, inventors speculate that 6J1 may induce the secretion of the PD-L1 trapped in the endosomal compartments via exosomes. To determine whether 6J1 may induce the secretion of PD-L1 via exosomes, HeLa cells are treated with or without 6J1 (1 μM) for 24 h. The supernatant is collected. Inventors purify the exosomes from the supernatant of HeLa cells by sequential centrifugation. The concentration of extracellular vesicle is determined using a Nanosight nanoparticle analyzer. And HeLa cells are treated with or without 6J1 (1 μM) for 48 h. The cell and supernatant are collected for Western Blot analysis. […] Moreover, the activity of Rab27a in HeLa cells treated with or without 6J1 (1 μM) is examined with a GST-SHD pulldown assay.
Moreover, ATG5- or LC3-knockout HeLa cells are treated with or without 6J1 (1 μM) for 24 h. The supernatant is collected, and the concentration of the extracellular vesicle is determined using a Nanosight nanoparticle analyzer. The exosomes are also collected and subjected to western blot analysis of the EVs marker and PD-L1 in FIG. 7a. The live cells are also labeled with an anti-PD-L1 antibody in FIG. 7b and subjected to flow cytometry analysis in FIG. 7c. […] In addition, inventors assess whether other autophagy-related genes, e.g., ATG4B, ATG7, Beclin1, and Vps34 are involved in 6J1-mediated exosomal PD-L1 secretion. ATG4B-, ATG7-, Beclin1-, or VPS34-knockout HeLa cells are treated with or without 6J1 (1 μM) for 24 h. The supernatant is collected, and the concentration of extracellular vesicle is determined using a Nanosight nanoparticle analyzer. The exosomes are also collected and subjected to western blot analysis of the EVs marker and PD-L1 in FIG. 7d. The live cells are also labeled with an anti-PD-L1 antibody and subjected to flow cytometry analysis in FIG. 7e.

Structure (SMILES) | internalization of PD-L1 (PD-L1 [1]) | total PD-L1 level in cells (PD-L1 [3]) | exosomal PD-L1 level (PD-L1 [3]) | other results
CCCCC[C@@H](O)[C@H]1C(=O)O[C@H](C)[C@@H](O)/C=C/C=C/C=C/C=C/C=C(\C)[C@@H](O)C[C@H](O)C[C@H](O)C[C@H](O)C[C@H](O)C[C@H](O)C[C@@H]1O [Filipin III] | does not affect the internalization of PD-L1 | – | – | –
O=C(C=Cc1ccc(C=CC(=O)Nc2ccc(C3=NCCN3)cc2)cc1)Nc1ccc(C2=NCCN2)cc1 [GW4869, reference compound] | – | – | – | effect of GW4869 on 6J1-mediated reduction of cell surface PD-L1 (PD-L1 [2]): does not impair 6J1-mediated reduction of cell surface PD-L1; effect of GW4869 on 6J1-induced exosome secretion (4T1 cells): inhibits exosome secretion of 4T1 cells induced by 6J1
O=C1NC(=NS(=O)(=O)c2cccc3ccccc23)S/C1=C\c1ccc(Br)cc1 [Pitstop2] | blocks the internalization of PD-L1 | – | – | –
CCC(=O)N1CCN(c2ccc(-n3c(=O)ccc4cnc5ccc(-c6cnc7ccccc7c6)cc5c43)cc2C(F)(F)F)CC1 [Torin1] | – | little effect | little effect | –
CO/C1=C\C(C)=C\[C@@H](C)[C@@H](O)[C@@H](C)C/C(C)=C/C=C/[C@H](OC)[C@@H]([C@@H](C)[C@@H](O)[C@H](C)[C@@]2(O)C[C@@H](O)[C@H](C)[C@@H](C(C)C)O2)OC1=O [bafilomycin A1] | – | markedly increases | markedly increases | –
C[C@H](CCC(=O)O)C[C@H](C)C[C@H](C)C(=O)/C=C(\O)[C@H](C)C[C@H](C)C/C=C/[C@@H](C)[C@@H](O)[C@@H](C)[C@@H](O)C[C@@H]1CC[C@@](C)([C@H]2CC[C@@](C)([C@@H](C)O)O2)O1 [ionomycin] | – | – | markedly increases the exosomal PD-L1 level; also recorded: markedly increased exosomal PD-L1 level | –
